What is called Ki is the equilibrium dissociation constant of an inhibitor or competing ligand from its target.

Here are results for 25 compounds from US7253187B2, “Heterocyclic inhibitors of ERK2 and uses thereof” (Vertex Pharmaceuticals Incorporated, priority 2001, dated 2007).

Experiment [1] has as its target ERK2 (Homo sapiens, UniProt P28482). Description: ERK2 inhibition assay (spectrophotometric coupled-enzyme assay). It counts as biochemical. Here is the method:
The IC50 was evaluated from the rate data as a function of inhibitor concentration. […] The compound numbers correspond to the compound numbers in Table 1.

Experiment [2] concerns the target T1, GSK-3β (AA 1–420) (Homo sapiens, UniProt P49841).
T1 construct: GSK-3β (AA 1–420)
Description: GSK-3 inhibition assay (coupled enzyme system). It counts as biochemical. The settings on record: read-out: GSK3 Inhibitory Activity (Ki class). Here is the method:
Final substrate concentrations in the assay were 20 μM ATP (Sigma Chemicals, St Louis, Mo.) and 300 μM peptide (HSSPHQS(PO3H2)EDEEE, American Peptide, Sunnyvale, Calif.). Reactions were carried out at 30° C. and 20 nM GSK-3β. Final concentrations of the components of the coupled enzyme system were 2.5 mM phosphoenolpyruvate, 300 μM NADH, 30 μg/ml pyruvate kinase and 10 μg/ml lactate dehydrogenase.
An assay stock buffer solution was prepared containing all of the reagents listed above with the exception of ATP and the test compound of interest. The assay stock buffer'solution (175 μl) was incubated in a 96 well plate with 5 μl of the test compound of interest at final concentrations spanning 0.002 μM to 30 μM at 30° C. for 10 min. […] The reaction was initiated by the addition of 20 μl of ATP (final concentration 20 μM). Rates of reaction were obtained using a Molecular Devices Spectramax plate reader (Sunnyvale, Calif.) over 10 min at 30° C. The Ki values were determined from the rate data as a function of inhibitor concentration.
The compound numbers correspond to the compound numbers in Table 1.

The mark [3] stands for this setting: read-out: ERK2 Inhibitory Activity (Ki class D-F).

SMILES strings stand for the structures. Like-named read-outs stand apart in the source and are kept apart here. Bounds are passed on as bounds.

T1 sequence (P49841 whole entry, species assumed, the tested form may be a part): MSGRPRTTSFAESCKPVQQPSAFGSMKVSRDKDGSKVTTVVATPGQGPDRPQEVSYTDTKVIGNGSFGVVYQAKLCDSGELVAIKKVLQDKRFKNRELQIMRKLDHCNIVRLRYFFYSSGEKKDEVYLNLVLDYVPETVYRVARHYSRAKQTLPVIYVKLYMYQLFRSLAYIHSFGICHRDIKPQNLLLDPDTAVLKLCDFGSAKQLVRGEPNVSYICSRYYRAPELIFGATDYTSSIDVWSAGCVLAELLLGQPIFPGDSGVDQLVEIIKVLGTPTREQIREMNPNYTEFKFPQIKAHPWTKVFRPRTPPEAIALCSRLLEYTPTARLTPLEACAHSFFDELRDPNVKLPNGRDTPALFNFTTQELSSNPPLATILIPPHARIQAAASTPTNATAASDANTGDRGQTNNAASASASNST
Sequence of ERK2 (P28482 whole entry): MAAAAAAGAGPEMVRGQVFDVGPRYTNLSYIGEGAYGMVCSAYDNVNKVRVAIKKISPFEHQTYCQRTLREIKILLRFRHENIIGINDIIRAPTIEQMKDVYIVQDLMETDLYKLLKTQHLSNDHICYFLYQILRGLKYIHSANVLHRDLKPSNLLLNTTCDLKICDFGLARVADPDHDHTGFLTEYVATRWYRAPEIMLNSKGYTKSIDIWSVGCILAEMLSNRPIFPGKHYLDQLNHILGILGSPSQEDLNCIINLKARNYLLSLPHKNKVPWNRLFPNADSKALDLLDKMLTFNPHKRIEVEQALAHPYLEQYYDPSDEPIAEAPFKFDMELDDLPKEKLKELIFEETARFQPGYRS

With `Cc1cnc(NC(CO)C(C)C)nc1-c1c[nH]c(C(=O)NC(CO)c2ccccc2)c1` (centres unmarked) [III-a-196, 4-[2-(1-Hydroxymethyl-2-methyl-propylamino)-5-methyl-pyrimidin-4-yl]-1H-pyrrole-2-carboxylic acid (2-hydroxy-1-phenyl-ethyl)-amide], the values for the Ki in experiment [1] (setting [3]) and in experiment [2] were under 100 nM and over 1000 nM, respectively.
On to `CCNc1ncc(C)c(-c2c[nH]c(C(=O)NC(CCO)c3ccccc3)c2)n1` (centres unmarked) [III-a-173, 4-(2-Ethylamino-5-methyl-pyrimidin-4-yl)-1H-pyrrole-2-carboxylic acid (3-hydroxy-1-phenyl-propyl)-amide], for which the Ki in experiment [1] (setting [3]) is 100 to 1000 nM; in experiment [2], over 1000 nM.
For `CNc1ncc(C)c(-c2c[nH]c(C(=O)NC(CO)c3ccc(F)c(Cl)c3)c2)n1` (centres unmarked) [III-a-134, 4-(5-Methyl-2-methylamino-pyrimidin-4-yl)-1H-pyrrole-2-carboxylic acid [1-(3-chloro-4-fluoro-phenyl)-2-hydroxy-ethyl]-amide], the Ki in experiment [1] (setting [3]) is under 100 nM; in experiment [2], over 1000 nM.
On to `Cc1cnc(NC(CO)CC2CC2)nc1-c1c[nH]c(C(=O)NC(CO)c2ccccc2)c1` (centres unmarked) [III-a-193, 4-[2-(2-Cyclopropyl-1-hydroxymethyl-ethylamino)-5-methyl-pyrimidin-4-yl]-1H-pyrrole-2-carboxylic acid (2-hydroxy-1-phenyl-ethyl)-amide], for which the Ki in experiment [1] (setting [3]) is under 100 nM; in experiment [2], 100 to 1000 nM.
In the case of `Cc1cnc(NOC(C)C)nc1-c1c[nH]c(C(=O)NC(CO)c2ccccc2)c1` (centres unmarked) [III-a-207, 4-(2-Isopropoxyamino-5-methyl-pyrimidin-4-yl)-1H-pyrrole-2-carboxylic acid (2-hydroxy-1-phenyl-ethyl)-amide], the Ki was under 100 nM in experiment [1] (setting [3]) and 100 to 1000 nM in experiment [2].
For the compound `CCNc1ncc(C)c(-c2c[nH]c(C(=O)NC(CO)c3cc(F)cc(C(F)(F)F)c3)c2)n1` (centres unmarked) [III-a-190, 4-(2-Ethylamino-5-methyl-pyrimidin-4-yl)-1H-pyrrole-2-carboxylic acid [1-(3-fluoro-5-trifluoromethyl-phenyl)-2-hydroxy-ethyl]-amide], the Ki in experiment [1] (setting [3]) and in experiment [2] was 100 to 1000 nM each time.
`Cc1cnc(NC(CO)c2ccccc2)nc1-c1c[nH]c(C(=O)NC(CO)c2ccccc2)c1` (centres unmarked) [III-a-166, 4-[2-(2-Hydroxy-1-phenyl-ethylamino)-5-methyl-pyrimidin-4-yl]-1H-pyrrole-2-carboxylic acid (2-hydroxy-1-phenyl-ethyl)-amide]: the Ki is 100 to 1000 nM in experiment [1] (ERK2 Inhibitory Activity (Ki class D-F)) and over 1000 nM in experiment [2].
For the compound `Cc1cnc(NC2CCCCC2O)nc1-c1c[nH]c(C(=O)NC(CO)c2ccccc2)c1` (centres unmarked) [III-a-179, 4-[2-(2-Hydroxy-cyclohexylamino)-5-methyl-pyrimidin-4-yl]-1H-pyrrole-2-carboxylic acid (2-hydroxy-1-phenyl-ethyl)-amide], the Ki in experiment [1] (setting [3]) and in experiment [2] was under 100 nM each time.
`Cc1cnc(Nc2ccc(OC(F)(F)F)cc2)nc1-c1c[nH]c(C(=O)NC(CO)c2ccccc2)c1` (centres unmarked) [III-a-157, 4-[5-Methyl-2-(4-trifluoromethoxy-phenylamino)-pyrimidin-4-yl]-1H-pyrrole-2-carboxylic acid (2-hydroxy-1-phenyl-ethyl)-amide]: the Ki in experiment [1] (setting [3]) and in experiment [2] was under 100 nM each time.
Turning to `Cc1cnc(Nc2cccc(F)c2)nc1-c1c[nH]c(C(=O)NC(CO)c2cccc(C(F)(F)F)c2)c1` (centres unmarked) [III-a-199, 4-[2-(3-Fluoro-phenylamino)-5-methyl-pyrimidin-4-yl]-1H-pyrrole-2-carboxylic acid [2-hydroxy-1-(3-trifluoromethyl-phenyl)-ethyl]-amide], the inhibition constant (Ki) in experiment [1] (setting [3]) and in experiment [2] was under 100 nM throughout.
On to `Cc1cnc(Nc2cccc(C)c2C)nc1-c1c[nH]c(C(=O)NC(CO)c2ccccc2)c1` (centres unmarked) [III-a-194, 4-[2-(2,3-Dimethyl-phenylamino)-5-methyl-pyrimidin-4-yl]-1H-pyrrole-2-carboxylic acid (2-hydroxy-1-phenyl-ethyl)-amide], for which the inhibition constant Ki in experiment [1] (setting [3]) and in experiment [2] was under 100 nM throughout.
Take `Cc1cccc(C(CO)NC(=O)c2cc(-c3nc(NC(CO)c4ccccc4)ncc3C)c[nH]2)c1` (centres unmarked) [III-a-210, 4-[2-(2-Hydroxy-1-phenyl-ethylamino)-5-methyl-pyrimidin-4-yl]-1H-pyrrole-2-carboxylic acid (2-hydroxy-1-m-tolyl-ethyl)-amide]: the values for the Ki in experiment [1] (setting [3]) and in experiment [2] were under 100 nM and over 1000 nM, respectively.
On to `Cc1cnc(Nc2ccccc2Cl)nc1-c1c[nH]c(C(=O)NC(CO)c2cccc(C(F)(F)F)c2)c1` (centres unmarked) [III-a-200, 4-[2-(2-Chloro-phenylamino)-5-methyl-pyrimidin-4-yl]-1H-pyrrole-2-carboxylic acid [2-hydroxy-1-(3-trifluoromethyl-phenyl)-ethyl]-amide], for which the Ki is under 100 nM in experiment [1] (setting [3]) and over 1000 nM in experiment [2].
For `CCC(CO)Nc1ncc(C)c(-c2c[nH]c(C(=O)NC(CO)c3cccc(Cl)c3)c2)n1` (centres unmarked) [III-a-232, 4-[2-(1-Hydroxymethyl-propylamino)-5-methyl-pyrimidin-4-yl]-1H-pyrrole-2-carboxylic acid (1-(3-chloro-phenyl)-2-hydroxy-ethyl]-amide], the Ki is under 100 nM in experiment [1] (setting [3]) and 100 to 1000 nM in experiment [2].
The corresponding values for `Cc1cnc(NC(CO)CO)nc1-c1c[nH]c(C(=O)NC(CO)c2cccc(Cl)c2)c1` (centres unmarked) [III-a-233, 4-[2-(2-Hydroxy-1-hydroxymethyl-ethylamino)-5-methyl-pyrimidin-4-yl]-1H-pyrrole-2-carboxylic acid [1-(3-chloro-phenyl)-2-hydroxy-ethyl]-amide] are under 100 nM and over 1000 nM.
The corresponding values for `O=C(NC(CO)c1ccccc1)c1cc(-c2nc(Nc3ccccc3)ncc2C2CC2)c[nH]1` (centres unmarked) [III-a-144, 4-(5-Cyclopropyl-2-phenylamino-pyrimidin-4-yl)-1H-pyrrole-2-carboxylic acid (2-hydroxy-1-phenyl-ethyl)-amide] are 100 to 1000 nM and over 1000 nM.
The matching figures for `CCNc1ncc(C)c(-c2c[nH]c(C(=O)NC(CCO)c3ccccc3)c2)n1` (centres unmarked) [III-a-172, 4-(2-Ethylamino-5-methyl-pyrimidin-4-yl)-1H-pyrrole-2-carboxylic acid (3-hydroxy-1-phenyl-propyl)-amide]: over 1000 nM and over 1000 nM.
As for `COc1ccccc1C(CO)NC(=O)c1cc(-c2nc(NC3CC3)ncc2C)c[nH]1` (centres unmarked) [III-a-203, 4-(2-Cyclopropylamino-5-methyl-pyrimidin-4-yl)-1H-pyrrole-2-carboxylic acid [2-hydroxy-1-(2-methoxy-phenyl)-ethyl]-amide], the values for the Ki in experiment [1] (setting [3]) and in experiment [2] were under 100 nM and 100 to 1000 nM, respectively.
The corresponding values for `Cc1cnc(NCC2CCCO2)nc1-c1c[nH]c(C(=O)NC(CO)c2ccccc2)c1` (centres unmarked) [III-a-216, 4-{5-Methyl-2-[(tetrahydro-furan-2-ylmethyl)-amino]-pyrimidin-4-yl}-1H-pyrrole-2-carboxylic acid (2-hydroxy-1-phenyl-ethyl)-amide] are under 100 nM and under 100 nM.
For `Cc1cnc(NCC(C)O)nc1-c1c[nH]c(C(=O)NC(CO)c2ccccc2)c1` (centres unmarked) [III-a-177, 4-[2-(2-Hydroxy-propylamino)-5-methyl-pyrimidin-4-yl]-1H-pyrrole-2-carboxylic acid (2-hydroxy-1-phenyl-ethyl)-amide], the results for the Ki in experiment [1] (setting [3]) and in experiment [2] were under 100 nM and 100 to 1000 nM, respectively.
The corresponding values for `Cc1cnc(NC(C)C)nc1-c1c[nH]c(C(=O)NC(CO)c2ccccc2)c1` (centres unmarked) [III-a-153, 4-(2-Isopropylamino-5-methyl-pyrimidin-4-yl)-1H-pyrrole-2-carboxylic acid (2-hydroxy-1-phenyl-ethyl)-amide] are under 100 nM and under 100 nM.
Consider `CC(=O)Nc1ncc(C)c(-c2c[nH]c(C(=O)NC(CO)c3ccccc3)c2)n1` (centres unmarked) [III-a-213, 4-(2-Acetylamino-5-methyl-pyrimidin-4-yl)-1H-pyrrole-2-carboxylic acid (2-hydroxy-1-phenyl-ethyl)-amide], for which the Ki in experiment [1] (setting [3]) is under 100 nM; in experiment [2], 100 to 1000 nM.
The corresponding values for `Cc1cnc(NCC(F)(F)F)nc1-c1c[nH]c(C(=O)NC(CO)c2ccccc2)c1` (centres unmarked) [III-a-154, 4-[5-Methyl-2-(2,2,2-trifluoro-ethylamino)-pyrimidin-4-yl]-1H-pyrrole-2-carboxylic acid (2-hydroxy-1-phenyl-ethyl)-amide] are under 100 nM and under 100 nM.
For `CCNc1ncc(C)c(-c2c[nH]c(C(=O)NC(C(=O)OC)c3ccccc3)c2)n1` (centres unmarked) [III-a-184, {[4-(2-Ethylamino-5-methyl-pyrimidin-4-yl)-1H-pyrrole-2-carbonyl]-amino}-phenyl-acetic acid methyl ester], the Ki in experiment [1] (setting [3]) is 100 to 1000 nM; in experiment [2], over 1000 nM.
Turning to `CCNc1ncc(C)c(-c2c[nH]c(C(=O)NC(CO)c3cccc(F)c3)c2)n1` (centres unmarked) [III-a-191, 4-(2-Ethylamino-5-methyl-pyrimidin-4-yl)-1H-pyrrole-2-carboxylic acid [1-(3-fluoro-phenyl)-2-hydroxy-ethyl]-amide], the Ki in experiment [1] (setting [3]) was under 100 nM; in experiment [2], 100 to 1000 nM.
